# In US11141413B2, “Method of treating renal cell carcinoma using N-(4-(6,7-dimethoxyquinolin-4-yloxy)phenyl)-N′-(4-fluorophenyl)cyclopropane-1,1-dicarboxamide, (2S)-hydroxybutanedioate” (Exelixis, Inc., priority 2016, dated 2021):
# Test system: patients with advanced renal cell carcinoma
# Settings: human, in vivo
# Experimental: Treatment modifications, including interruptions and dose reductions, were allowed to manage adverse events. […] Patients were allowed to continue study treatment beyond radiographic progression at the discretion of the investigator. On-study crossover between treatment groups was not permitted. Safety evaluations, including physical examination, vital signs, and laboratory assessments, were conducted every 2 weeks for the first 8 weeks and then every 4 weeks thereafter. ECG assessments were performed every 4 weeks for the first 8 weeks and then every 12 weeks. A safety follow-up visit was scheduled 30 days after treatment discontinuation. Adverse events were assessed by investigators and graded according to CTCAE version 4.0.
# Safety analyses were limited to patients who received any amount of study treatment.
structure (smiles),measurement,value
CO[C@H]1C[C@@H]2CC[C@@H](C)[C@@](O)(O2)C(=O)C(=O)N2CCCC[C@H]2C(=O)O[C@H]([C@H](C)C[C@@H]2CC[C@@H](OCCO)[C@H](OC)C2)CC(=O)[C@H](C)/C=C(\C)[C@@H](O)[C@@H](OC)C(=O)[C@H](C)C[C@H](C)/C=C/C=C/C=C/1C [everolimus],"ALP increased, All Grades",29%
same,"ALP increased, Grade 3-4",1%
same,"ALT increased, All Grades",32%
same,"ALT increased, Grade 3-4",<1%
same,"AST increased, All Grades",40%
same,"AST increased, Grade 3-4",<1%
same,"Abdominal pain, All Grades",13%
same,"Abdominal pain, Grade 1-2",27 (8) n (%)
same,"Abdominal pain, Grade 3",5 (2) n (%)
same,"Abdominal pain, Grade 3-4",2%
same,"Abdominal pain, Grade 4",0 n (%)
same,"Absolute neutrophil count decreased, All Grades",17%
same,"Absolute neutrophil count decreased, Grade 3-4",<1%
same,Adverse reactions led to study treatment being held,59%
same,Adverse reactions led to study treatment discontinuation,10%
same,"Alanine aminotransferase increased, Grade 1-2",20 (6) n (%)
same,"Alanine aminotransferase increased, Grade 3",1 (<1) n (%)
same,"Alanine aminotransferase increased, Grade 4",0 n (%)
same,"Anemia, All Grades",38%
same,"Anemia, Grade 1-2",73 (23) n (%)
same,"Anemia, Grade 3",53 (17) n (%)
same,"Anemia, Grade 3-4",16%
same,"Anemia, Grade 4",0 n (%)
same,"Anemia, all grades",126 (39%) n (%)
same,"Anemia, grade 3 or 4",53 [17%] n [%]
same,"Any AE, Grade 1-2",103 (32) n (%)
same,"Any AE, Grade 3",167 (52) n (%)
same,"Any AE, Grade 4",26 (8) n (%)
same,"Arthralgia, All Grades",14%
same,"Arthralgia, Grade 1-2",46 (14) n (%)
same,"Arthralgia, Grade 3",4 (1) n (%)
same,"Arthralgia, Grade 3-4",1%
same,"Arthralgia, Grade 4",0 n (%)
same,"Aspartate aminotransferase increased, Grade 1-2",19 (6) n (%)
same,"Aspartate aminotransferase increased, Grade 3",1 (<1) n (%)
same,"Aspartate aminotransferase increased, Grade 4",0 n (%)
same,"Asthenia, All Grades",16%
same,"Asthenia, Grade 1-2",46 (14) n (%)
same,"Asthenia, Grade 3",8 (3) n (%)
same,"Asthenia, Grade 3-4",2%
same,"Asthenia, Grade 4",0 n (%)
same,"Back pain, Grade 1-2",41 (13) n (%)
same,"Back pain, Grade 3",7 (2) n (%)
same,"Back pain, Grade 4",0 n (%)
same,"Blood creatinine increased, Grade 1-2",39 (12) n (%)
same,"Blood creatinine increased, Grade 3",0 n (%)
same,"Blood creatinine increased, Grade 4",0 n (%)
same,"Constipation, All Grades",19%
same,"Constipation, Grade 1-2",64 (20) n (%)
same,"Constipation, Grade 3",1 (<1) n (%)
same,"Constipation, Grade 3-4",<1%
same,"Constipation, Grade 4",0 n (%)
same,"Cough, All Grades",33%
same,"Cough, Grade 1-2",107 (33) n (%)
same,"Cough, Grade 3",3 (<1) n (%)
same,"Cough, Grade 3-4",<1%
same,"Cough, Grade 4",0 n (%)
same,"Creatinine increased, All Grades",71%
same,"Creatinine increased, Grade 3-4",0%
same,"Decreased appetite, All Grades",34%
same,"Decreased appetite, Grade 1-2",111 (35) n (%)
same,"Decreased appetite, Grade 3",3 (<1) n (%)
same,"Decreased appetite, Grade 3-4",<1%
same,"Decreased appetite, Grade 4",0 n (%)
same,"Decreased appetite, all grades",114 (3-5%) n (%)
same,"Diarrhea, All Grades",28%
same,"Diarrhea, Grade 1-2",85 (26) n (%)
same,"Diarrhea, Grade 3",7 (2) n (%)
same,"Diarrhea, Grade 3-4",2%
same,"Diarrhea, Grade 4",0 n (%)
same,Discontinuation due to a primary reason of AE (excluding disease progression),10%
same,"Dizziness, All Grades",7%
same,"Dizziness, Grade 1-2",21 (7) n (%)
same,"Dizziness, Grade 3",0 n (%)
same,"Dizziness, Grade 3-4",0%
same,"Dizziness, Grade 4",0 n (%)
same,"Dry skin, All Grades",10%
same,"Dry skin, Grade 1-2",35 (11) n (%)
same,"Dry skin, Grade 3",0 n (%)
same,"Dry skin, Grade 3-4",0%
same,"Dry skin, Grade 4",0 n (%)
same,"Dysgeusia, All Grades",9%
same,"Dysgeusia, Grade 1-2",30 (9) n (%)
same,"Dysgeusia, Grade 3",0 n (%)
same,"Dysgeusia, Grade 3-4",0%
same,"Dysgeusia, Grade 4",0 n (%)
same,"Dyspepsia, All Grades",5%
same,"Dyspepsia, Grade 1-2",15 (5) n (%)
same,"Dyspepsia, Grade 3",0 n (%)
same,"Dyspepsia, Grade 3-4",0%
same,"Dyspepsia, Grade 4",0 n (%)
same,"Dysphonia, All Grades",4%
same,"Dysphonia, Grade 1-2",16 (5) n (%)
same,"Dysphonia, Grade 3",0 n (%)
same,"Dysphonia, Grade 3-4",0%
same,"Dysphonia, Grade 4",0 n (%)
same,"Dyspnea, All Grades",29%
same,"Dyspnea, Grade 3-4",4%
same,"Dyspnoea, Grade 1-2",82 (26) n (%)
same,"Dyspnoea, Grade 3",11 (3) n (%)
same,"Dyspnoea, Grade 4",3 (<1) n (%)
same,"Edema peripheral, Grade 1-2",70 (22) n (%)
same,"Edema peripheral, Grade 3",6 (2) n (%)
same,"Edema peripheral, Grade 4",0 n (%)
same,"Epistaxis, Grade 1-2",46 (14) n (%)
same,"Epistaxis, Grade 3",0 n (%)
same,"Epistaxis, Grade 4",0 n (%)
same,Events of arterial thromboembolism,0.3%
same,"Fatigue, All Grades",47%
same,"Fatigue, Grade 1-2",130 (40) n (%)
same,"Fatigue, Grade 3",24 (8) n (%)
same,"Fatigue, Grade 3-4",7%
same,"Fatigue, Grade 4",0 n (%)
same,"Fatigue, all grades",154 (48%) n (%)
same,"Fatigue, grade 3 or 4",24 [7%] n [%]
same,Fistulas,0%
same,"Flatulence, Grade 1-2",7 (2) n (%)
same,"Flatulence, Grade 3",0 n (%)
same,"Flatulence, Grade 4",0 n (%)
same,"GGT increased, All Grades",43%
same,"GGT increased, Grade 3-4",9%
same,Gastrointestinal (GI) perforations,0.6%
